This is an account of results in patent US6552015B2, “Azabicycloalkane derivatives and therapeutic uses thereof” (Pfizer Inc., priority 2000, dated 2003).

Where a name gives a salt, the structure may show the parent alone.

Regarding `O=c1[nH]c2c(Cl)cccc2c(=O)n1CCCN1C2CCC1CN(c1ccc(Cl)c(Cl)c1)C2` (as salt: maleate), the melting point – broadly, the temperature of the solid-liquid transition – lay within 205 to 207 °C.
Regarding `O=c1[nH]c2c(Cl)cccc2c(=O)n1CCCN1CC2CCC1CN2c1ccc(Cl)c(Cl)c1` (stereo not shown) (as salt: maleate) [Example 48, 8-CHLORO-3-{3-[5-(3,4-DICHLORO-PHENYL)-2,5-DIAZA-BICYCLO[2.2.2]OCT-2-YL]-PROPYL}-1H-QUINAZOLINE-2,4-DIONE], the melting point is 68 to 73 °C (dec.).
To `Cc1ccc(N2CC3CCC2CN3CCCn2c(=O)[nH]c3c(Cl)cccc3c2=O)c(C)c1` (stereo not shown) (as salt: maleate) belongs 149 to 151 °C; to `O=c1[nH]c2c(Cl)cccc2c(=O)n1CCCN1CC2CC1CN2c1cccc(F)c1` (stereo not shown) (as salt: maleate) [Example 42, 8-CHLORO-3-{3-[5-(3-FLUORO-PHENYL)-2,5-DIAZA-BICYCLO[2.2.1]HEPT-2-YL]-PROPYL}-1H-QUINAZOLINE-2,4-DIONE], 168 to 170 °C.
For the compound `O=c1[nH]c2ccccc2c(=O)n1CCCN1C2CCC1CN(c1ccc(F)cc1)C2` (as salt: maleate), the melting point lay within 70 to 74 °C.
`O=c1[nH]c2c(Cl)cccc2c(=O)n1CCCN1CC2CC1CN2c1ccc(Cl)cc1` (stereo not shown) (as salt: maleate) [Example 41, 8-CHLORO-3-{3-[5-(4-CHLORO-PHENYL)-2,5-DIAZA-BICYCLO[2.2.1]HEPT-2-YL]-PROPYL}-1H-QUINAZOLINE-2,4-DIONE] came in with a melting point of 205 to 207 °C.
`O=c1[nH]c2c(Cl)cccc2c(=O)n1CCCN1C2CCC1CN(c1ccc(Cl)cc1)C2` (as salt: maleate) yielded a melting point of 186 to 188 °C.
For `O=c1[nH]c2c(Cl)cccc2c(=O)n1CCCN1C2CCC1CN(c1ccc(F)cc1)C2` (as salt: maleate), the melting point was 173 to 175 °C.
To `O=c1[nH]c2c(Cl)cccc2c(=O)n1CCCN1C2CCC1CN(c1ccc(C(F)(F)F)cc1)C2` (as salt: maleate) belongs 205 to 207 °C.
The value for `O=c1[nH]c2ccccc2c(=O)n1CCCN1CC2CCC1CN2c1ccc(F)cc1` (stereo not shown) (as salt: maleate) [Example 49, 3-{3-[5-(4-FLUORO-PHENYL)-2,5-DIAZA-BICYCLO[2.2.2]OCT-2-YL]-PROPYL}-1H-QUINAZOLINE-2,4-DIONE] was 95 to 98 °C (dec.).
The value for `O=c1[nH]c2ccccc2c(=O)n1CCCN1C2CCC1CN(c1ccc(Cl)c(Cl)c1)C2` (as salt: maleate) was 105 to 108 °C (dec.); that for `O=c1[nH]c2c(Cl)cccc2c(=O)n1CCCN1CC2CCC1CN2c1ccc(F)cc1` (stereo not shown) (as salt: maleate) [Example 46, 8-CHLORO-3-{3-[5-(4-FLUORO-PHENYL)-2,5-DIAZA-BICYCLO[2.2.2]OCT-2-YL]-PROPYL}-1H-QUINAZOLINE-2,4-DIONE] was 186 to 188 °C; that for `O=c1[nH]c2ccccc2c(=O)n1CCCCN1C2CCC1CN(c1ccc(Cl)cc1)C2` (as salt: maleate) was 187 to 189 °C.
Compound `Cc1ccc2[nH]c(=O)n(CCCN3C4CCC3CN(c3ccc(Cl)cc3)C4)c(=O)c2c1` (as salt: hydrochloride) had a melting point greater than 300 °C.
The value for `Cc1ccc(N2CC3CCC(C2)N3CCCn2c(=O)[nH]c3c(Cl)cccc3c2=O)c(C)c1` (as salt: maleate) was 217 to 219 °C; that for `O=c1[nH]c2c(Cl)cccc2c(=O)n1CCCCN1C2CCC1CN(c1ccc(Cl)cc1)C2` (as salt: maleate) was 235 to 238 °C.
